Legend:
[1] = tested on: cultured cortical neurons; assay: Antagonism of NMDA-induced neurotoxicity in cultured cortical neurons (LDH release); assay type: cell-based, mouse (Swiss-Webster); conditions: 500 μM NMDA, 30 min exposure, LDH 24 h later
Procedure: Antagonism of NMDA-induced Neurotoxicity in Cultured Neurons
Preparation of Cultured Cortical Neurons
Pregnant, Swiss-Webster mice were obtained from Taconic Farms (Germantown, New York) and sacrificed 16 days post conception. Fetuses were removed and placed in a sterile dish containing Hank's balanced salt solution (HBSS), pH 7.4. Brain cortices were dissected, meninges were removed, the tissue was minced and placed into a solution of HBSS containing 0.25% (w/v) trypsin at 37° C. for 15 minutes. Tissue was then triturated with a sterile pasteur pipet, diluted with minimal essential media (Gibco 330-1430), pH 7.4, supplemented with 10% horse serum, 10% fetal calf serum, 2 mM 1-glutamine, 21 mM d-glucose, 2.2 g/L sodium bicarbonate, 1000 U/mL penicillin, and 1,000 μg/mL streptomycin. Cells were plated onto Falcon primaria 96 well plates at a final density of 50,000 cells/well and incubated at 37 °C in the presence of 5% (v/v) carbon dioxide. After 5 days, plating media was replaced with maintenance media containing minimal essential media (Gibco 330-1430), pH 7.4, supplemented with 10% horse serum, […], 21 mM d-glucose, 2.2 g/L sodium bicarbonate, 1,000 U/mL penicillin, 1,000 μg/mL streptomycin, and 10 μM cytosine arabinoside. On days 7 and 10, media was replaced with maintenance media as above lacking the cytosine arabinoside. Experiments were conducted on day 13.
Neuroprotection Assessment
Day 13 cultured cortical neurons were washed twice with minimal essential media, pH 7.4 and then exposed for 30 minutes to 500 μM N-methyl-D-aspartic acid (NMDA) with or without varying concentrations of test agents. […] MK-801 and test agents were prepared in minimal essential media supplemented with 21 mM d-glucose and 2.2 g/L sodium bicarbonate (MEM). After 30 minutes, media was replaced with MEM alone. Exposure of neurons to test agents was limited to the NMDA treatment period. Twenty-four hours after removal of NMDA, an aliquot of media from each well was removed for assessment of cell injury by determining lactate dehydrogenase (LDH) activity by the method of Wroblewski and LaDue Proc. Soc. Exp. Biol. Med. 1955, 90, 210-213. The results are expressed as an IC50 (in nM) value (concentration causing 50% inhibition) for the antagonism of NMDA--inducedneurotoxicity. Table 3 summarizes the results obtained from the testing of representative compounds of the invention in the [^3 H]TCP radioreceptor assay as well as in the antagonism of NMDA-induced neurotoxicity in cultured neurons.

PCP receptor = assay: [3H]TCP radioreceptor assay (binding to PCP recognition sites); parameters: species or system rat (male Sprague-Dawley, whole brain); conditions: for Ki: [3H]TCP approx. 1 nM, rat brain membranes, mean of at least two determinations
Method in brief: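 Rat whole-brain membranes (Tris-HCl, pH 7.7), 0.5 mg protein/tube, incubated with ~1 nM [3H]TCP for 25 min at room temperature; non-specific binding defined with 100 μM PCP. Bound ligand collected by filtration and counted by scintillation; Ki from at least two determinations, or % inhibition at 10 μM.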

| Compound | IC50 [1] | Ki (PCP receptor) | IC50 ([1]; Mus musculus, Cortical neurone) | [3H]TCP percent inhibition @ 10 μm (PCP receptor; inhibition of [3H]TCP binding at 10 μM) |
| --- | --- | --- | --- | --- |
| CC1C2c3ccccc3C(c3cccc[n+]32)C1(c1ccoc1)c1ccoc1 (single isomer, unassigned) [181(c), 6,11-ethano-12,12-di(3-furyl)-13-methyl-6,11-dihydrobenzo[b]quinolizinium hexafluorophosphate] | 11.4 nM | 6.36 nM |  |  |
| CC12CC(c3ccoc3)(c3ccoc3)C(c3ccccc31)c1cccc[n+]12 (centres unmarked) [50(b), 6,11ethano-12,12-di(3-furanyl)-6-methyl-6,11-dihydrobenzo[b]quinolizinilium chloride] |  | 1.24 nM | 22 nM |  |
| c1csc(C2(c3cccs3)CC3c4ccccc4C2c2cccc[n+]23)c1 (centres unmarked) [48(b), 6,11-ethano-12,12-di(2-thienyl)-6,11-dihydrobenzo[b]quinolizinium chloride] | 23 nM | 2.08 nM |  |  |
| Oc1ccc2c(c1)C1c3cccc[n+]3C2CC1(c1ccoc1)c1ccoc1 (centres unmarked) [Example 193, 12,12-di(3-furyl)-9-hydroxy-6,11-ethano-6,11-dihydrobenzo[b]quinolizinium chloride] |  | 2.13 nM | 11.8 nM |  |
| c1coc(C2(c3ccco3)CC3c4ccccc4C2c2cccc[n+]23)c1 (centres unmarked) [57(d), 6,11-ethano-12,12-di(2-furanyl)-6,11-dihydrobenzo[b]quinolizinium chloride] | 36 nM | 1.9 nM |  |  |
| c1ccc2c(c1)-c1ccccc1C21CC2c3ccccc3C1c1cccc[n+]12 (centres unmarked) [58(c), 6,11-ethano-12,12-spiro-9H-fluorenyl-6,11-dihydrobenzo[b]quinolizinium chloride] |  |  | > 1000 nM | 32% |
| c1ccc2c(c1)CC1C3c4ccccc4C(c4cccc[n+]43)C21c1ccoc1 (centres unmarked) [6(d), 6.11[[2',3']-3'-(3-furyl)indanyl]6,11-dihydrobenzo[b]quinolizinium chloride] |  | 1.2 nM | 244 nM |  |
| [O-][Cl+3]([O-])([O-])[O-].c1ccc2c(c1)C1CC(c3ccoc3)(c3ccn[nH]3)C2c2cccc[n+]21 (single isomer, unassigned) [185(a), 6,11-ethano-12-(3-furyl)-12-(5-pyrazolyl]-6,11-dihydrobenzo[b]quinolizinium perchlorate] |  | 4.55 nM | 32.6 nM |  |
| CCOC1(c2ccoc2)CC2c3ccccc3C1c1cccc[n+]12 (centres unmarked) [11(g), 6,11-ethano-12-(3-furyl)-12-ethoxy-6,11-dihydrobenzo[b]quinolizinium chloride] | 2000 nM | 18 nM |  |  |
| c1ccc2c(c1)C1CC(c3ccsc3)(c3ccsc3)C2c2cccc[n+]21 (centres unmarked) [52(F), 6,11-ethanol 12,12-di(3-thienyl)-6,11-dihydrobenzo[b]quinolizinium chloride] |  | 1.82 nM | 39 nM |  |
| [O-][Cl+3]([O-])([O-])[O-].c1ccc2c(c1)C1CC(c3ccoc3)(c3ccn[nH]3)C2c2cccc[n+]21 (single isomer, unassigned) [185(b), 6,11-ethano-12-(3-furyl)-12-(5-pyrazolyl]-6,11-dihydrobenzo[b]quinolizinium perchlorate] | 53 nM | 6.29 nM |  |  |
| N#CC12CC(c3ccoc3)(c3ccoc3)C(c3ccccc31)c1cccc[n+]12 (centres unmarked) [171(b), 6,11-ethano-12,12-di(3-furyl)-6-cyano-6,11-dihydrobenzo[b]quinolizinium chloride] |  | 10.2 nM | 26.5 nM |  |
| Oc1ccc2c(c1)C1c3cccc[n+]3C2CC1(c1cc[nH]n1)c1cc[nH]n1 (centres unmarked) [195(c), 12,12-di(pyrazol-3-yl)-9-hydroxy-6,11-ethano-6,11-dihydrobenzo[b]quinolizinium chloride] |  | 12.6 nM | 30.8 nM |  |
| Cc1noc2c1CCC1C3c4ccccc4C(c4cccc[n+]43)C21c1ccoc1 (centres unmarked) [8(c), 6,11[[6',7']-7'-(3-furyl)-3'-methyl-4',5',6',7'-tetrahydrobenzisoxazol]6,11-dihydrobenzo[b]quinolizinium hexafluorophosphate] |  | 117 nM |  |  |
| COc1c(Cl)ccc2c1C1c3cccc[n+]3C2CC1(c1ccoc1)c1ccoc1 (centres unmarked) [187(g), 6,11-ethano-12,12-di(3-furyl)-9-chloro-10-methoxy-6,11-dihydrobenzo[b]quinolizinium chloride] |  | 63.7 nM |  |  |
| Fc1ccc2c(c1)C1c3cccc[n+]3C2CC1(c1cc[nH]n1)c1cc[nH]n1 (centres unmarked) [198(b), 6,11-ethano-12,12-di-(pyrazol-3-yl)]-9-fluoro-6,11-dihydrobenzo-[b]quinolizinium chloride] |  | 11.7 nM |  |  |
| [O-][Cl+3]([O-])([O-])[O-].c1ccc2c(c1)C1CC(c3cocn3)(c3cocn3)C2c2cccc[n+]21 (centres unmarked) [53(g), 6,11-ethano-12,12-di(4-oxazolyl)-6,11-dihydrobenzo[b]quinolizinium perchlorate] |  | 93 nM |  |  |
| Brc1cccc(C2(c3cccc(Br)c3)CC3c4ccccc4C2c2cccc[n+]23)c1 (centres unmarked) [36(c), 6,11-ethano-12,12-di(m-bromophenyl)-6,11-dihydrobenzo[b]quinolizinium chloride] |  | 185 nM |  |  |
| Oc1cccc2c1C1c3cccc[n+]3C2CC1(c1cc[nH]n1)c1cc[nH]n1 (centres unmarked) [175(b)] |  | 119 nM |  |  |
| O=[N+]([O-])c1cccc2c1C1c3cccc[n+]3C2CC1(c1ccoc1)c1ccoc1.[O-][Cl+3]([O-])([O-])[O-] (single isomer, unassigned) [Example 201(d), 6,11-ethano-12,12-di(3-furyl)-10-nitro-6,11-dihydrobenzo[b]quinolizinium perchlorate] |  | 49.2 nM |  |  |
| Clc1ccc2c(c1)C1c3cccc[n+]3C2CC1(c1ccn[nH]1)c1ccn[nH]1 (centres unmarked) [189(b), 6,11-ethano-12,12-di-(pyrazol-5-yl)]-9-chloro-6,11-dihydrobenzo[b]quinolizinium perchlorate] |  | 22.5 nM |  |  |
| COC(=O)C12CC(c3ccoc3)(c3ccoc3)C(c3ccccc31)c1cccc[n+]12 (centres unmarked) [176(d), 6,11-ethano-12,12-di(3-furyl)-6-methoxycarbonyl-6,11-dihydrobenzo[b]quinolizinium chloride] |  | 39.4 nM |  |  |
| CCCCC12CC(c3ccccc3)(c3ccccc3)C(c3ccccc31)c1cccc[n+]12.[O-][Cl+3]([O-])([O-])[O-] (centres unmarked) [59(c), 6,11-ethano-12,12-diphenyl-6-butyl-6,11-dihydrobenzo[b]quinolizinium perchlorate] |  | 3910 nM |  |  |
| COc1ccc(C2(c3ccc(OC)cc3)CC3c4ccccc4C2c2cccc[n+]23)cc1 (centres unmarked) [44(b), 6,11-ethano-12,12-di(p-methoxyphenyl)-6,11-dihydrobenzo[b]quinolizinium hexafluorophosphate] |  | 28100 nM |  |  |
| c1ccc(C2(c3ccccn3)CC3c4ccccc4C2c2cccc[n+]23)nc1 (centres unmarked) [24(b), 6,11-ethano-12,12-di-(2-pyridyl)-6,11-dihydrobenzo[b]quinolizinium chloride hydrate] |  | 8.39 nM |  |  |
| [O-][Cl+3]([O-])([O-])[O-].c1ccc(C2(N3CCOCC3)CC3c4ccccc4C2c2cccc[n+]23)cc1 (centres unmarked) [111(b), 6,11-Ethano-12-phenyl-12-(4-morpholinyl)-6,11-dihydrobenzo[b]quinolizinium perchlorate] |  | 37.8 nM |  |  |
| COc1ccc2c(c1)C1(c3ccccc3)C3c4ccccc4C(C1C2)[n+]1ccccc13 (centres unmarked) [3(d), 6,11[[2',3']-3'-phenyl-6'-methoxyindanyl]6,11-dihydrobenzo[b]quinoliziniumhexafluorophosphate] |  | 14.1 nM |  |  |
| Clc1cccc(C2(c3cccc(Cl)c3)CC3c4ccccc4C2c2cccc[n+]23)c1 (centres unmarked) [55(b), 6,11-ethano-12,12-di(m-chlorophenyl)-6,11-dihydrobenzo[b]quinolizinium chloride] |  | 104 nM |  |  |

Reference: patent US5554620A, “Substituted 6,11-ethano-6,11-dihydrobenzo[b] quinolizinium salts and compositions and methods of use thereof” (Sterling Winthrop Inc., priority 1994, dated 1996)
